Data taken from patent US20250275991A1, “ORAL COMPLEMENT FACTOR D INHIBITORS” (BioCryst Pharmaceuticals, Inc, priority 2019, published 2025).
pIC50: −log10 of the molar value.

molecular target: Factor D (Homo sapiens, UniProt P00746); assay: Factor D esterolytic assay; assay type: biochemical; conditions: substrate Z-Lys-SBzl 1.29 mM, 100 mM HEPES, 500 mM NaCl, pH 7.5, 10% DMSO, tested a minimum of three times
Experimental: The IC50 value of a compound (i.e., the concentration of the compound that inhibits 50% of the enzymatic activity) was calculated according to the procedure reported in U.S. Pat. No. 6,653,340 B1, e.g., column 74 (incorporated by reference).
Specifically, the compounds were dissolved in a stock solution of DMSO at 10.0 or 100 mM. A portion of this stock solution was added to assay buffer in a final volume of 50 μL. Controls included buffer alone and enzyme solutions to which DMSO was added. Substrate was added to the reaction wells immediately or after incubation at room temperature. The reaction rates were measured spectrophotometrically by the generation of product at 405 nm for 600 sec. Background absorbance at 690 nm was measured and subtracted from the absorbance at 405 nm for each well.
The reaction rate for enzyme alone was compared to the rate of enzyme in the presence of inhibitor and the percent inhibition was calculated as shown below: […]
An established esterolytic assay for the measurement of Factor D activity and inhibition of Factor D activity was used (Kam, C. M.; McRae, B. J.; Harper, J. W.; Niemann, M. A.; Volanakis, J. E.; Powers, J. C. Human complement proteins D, C2, and B Active site mapping with peptide thioester substrates. J Biol. Chem. 1987, 262, 3444-3451). For this assay Z-Lys-SBzl, 1.29 mM (Kim, S.; Narayana, S. V. L; Volanakis, J. E. Mutational analysis of the substrate binding site of human complement Factor D. Biochemistry. 1994, 33, 14393-14399.) was used as the substrate for Factor D ([…]). Hydrolysis of this compound by Factor D liberated a free sulfhydryl group which is then reacted with 5,5′-dithiobis(2nitrobenzoic acid) producing an intense yellow color (Habeeb, A. F. S. A. Reaction of protein sulfhydryl groups with Ellman's Reagent. Methods in Enzymol. 1976, 25, 457-464). The assays were performed in 96 well microtiter plates and rates of hydrolysis were monitored at 405 nm on a Biotek Synergy H1 plate reader. Hydrolysis rates were reported as change in mOD/min. The assay was conducted in 100 mM HEPES, 500 mM NaCl, pH 7.5 containing 10% DMSO in a final volume of 50 μL per well.
An IC50, a compound concentration which inhibits 50% of the enzymatic activity, was calculated. Compounds in the examples were tested a minimum of three times.

Sequence of Factor D (P00746 26-253): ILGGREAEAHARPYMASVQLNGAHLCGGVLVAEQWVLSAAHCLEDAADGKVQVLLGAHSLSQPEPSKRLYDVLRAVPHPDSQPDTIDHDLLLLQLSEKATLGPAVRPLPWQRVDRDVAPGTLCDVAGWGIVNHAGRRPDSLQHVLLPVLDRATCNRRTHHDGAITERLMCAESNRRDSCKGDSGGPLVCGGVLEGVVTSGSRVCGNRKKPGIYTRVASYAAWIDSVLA

| Compound | pIC50 |
| --- | --- |
| NCc1nccc(-c2cc(COc3ccc(F)cc3CC(=O)O)cc3c(C(F)(F)F)coc23)c1F [Compound 11m, 2-(2-((7-(2-(aminomethyl)-3-fluoropyridin-4-yl)-3-(trifluoromethyl)benzofuran-5-yl)methoxy)-5-fluorophenyl)acetic acid] | > 6.00 |
| CC(=O)OCc1cc2cc(COc3ccccc3CC(=O)O)cc(-c3cccc(CN)c3)c2o1 [Compound 23h, 2-(2-((2-(acetoxymethyl)-7-(3-(aminomethyl)phenyl)benzofuran-5-yl)methoxy)phenyl)acetic acid] | > 6.00 |
| NCc1nccc(-c2cc(COc3ccc(F)cc3CC(=O)O)cc3cc(F)oc23)c1F [Compound 17d, 2-(2-((7-(2-(aminomethyl)-3-fluoropyridin-4-yl)-2-fluorobenzofuran-5-yl)methoxy)-5-fluorophenyl)acetic acid] | > 6.00 |
| CC(C)C(N)c1cccc(-c2cc(COc3ccccc3CC(=O)O)cc3ccoc23)c1 (stereo not drawn) [Compound 3c, 2-(2-((7-(3-(1-amino-2-methylpropyl)phenyl)benzofuran-5-yl)methoxy)phenyl)acetic acid] | 5.00 to 6.00 |
| CCCCCCC(=O)NCc1ccc(CC(=O)O)c(OCc2cc(-c3cccc(CN)c3)c3occc3c2)c1 [Compound 26f, 2-(2-((7-(3-(aminomethyl)phenyl)benzofuran-5-yl)methoxy)-4-(heptanamidomethyl)phenyl)acetic acid] | > 6.00 |
| COCc1cc2cc(COc3cc(C(C)=O)ccc3CC(=O)O)cc(-c3cccc(CN)c3)c2o1 [Compound 12j, 2-(4-acetyl-2-((7-(3-(aminomethyl)phenyl)-2-(methoxymethyl)benzofuran-5-yl)methoxy)phenyl)acetic acid] | > 6.00 |
| CS(=O)(=O)NCc1ccc(CC(=O)O)c(OCc2cc(-c3cccc(CN)c3)c3occc3c2)c1 [Compound 33c, 2-(2-((7-(3-(aminomethyl)phenyl)benzofuran-5-yl)methoxy)-4-(methylsulfonamidomethyl)phenyl)acetic acid] | > 6.00 |
| NC(CF)c1cccc(-c2cc(COc3cc(F)ccc3CC(=O)O)cc3ccoc23)c1 (single isomer, unassigned; (+)) [Compound 15f, (+)-2-(2-((7-(3-(1-amino-2-fluoroethyl)phenyl)benzofuran-5-yl)methoxy)-4-fluorophenyl)acetic acid] | > 6.00 |
| NCc1cccc(-c2cc(COc3ccccc3CC(=O)O)cc3c(F)coc23)c1 [Compound 44d, 2-(2-((7-(3-(aminomethyl)phenyl)-3-fluorobenzofuran-5-yl)methoxy)phenyl)acetic acid] | > 6.00 |
| CCC(N)c1cccc(-c2cc(COc3ccccc3CC(=O)O)cc3ccoc23)c1 (stereo not drawn) [Compound 2f, 2-(2-((7-(3-(1-aminopropyl)phenyl)benzofuran-5-yl)methoxy)phenyl)acetic acid] | > 6.00 |
| CCOP(=O)(NCc1ccc(CC(=O)O)c(OCc2cc(-c3cccc(CN)c3)c3occc3c2)c1)OCC [Compound 32c, 2-(2-((7-(3-(aminomethyl)phenyl)benzofuran-5-yl)methoxy)-4-((diethoxyphosphorylamino)methyl)phenyl)acetic acid] | > 6.00 |
| CC(C)OC(=O)NCc1ccc(CC(=O)O)c(OCc2cc(-c3cccc(CN)c3)c3occc3c2)c1 [Compound 27c, 2-(2-((7-(3-(aminomethyl)phenyl)benzofuran-5-yl)methoxy)-4-((isopropoxycarbonylamino)methyl)phenyl)acetic acid] | > 6.00 |
| CC(N)c1cc(-c2cc(COc3ccccc3CC(=O)O)cc3ccoc23)cs1 (stereo not drawn) [Compound 4c, 2-(2-((7-(5-(1-aminoethyl)thiophen-3-yl)benzofuran-5-yl)methoxy)phenyl)acetic acid] | < 5.00 |
| CCOC(=O)NCc1ccc(CC(=O)O)c(OCc2cc(-c3cccc(CN)c3)c3occc3c2)c1 [Compound 29c, 2-(2-((7-(3-(aminomethyl)phenyl)benzofuran-5-yl)methoxy)-4-((ethoxycarbonylamino)methyl)phenyl)acetic acid] | > 6.00 |
| NCc1nccc(-c2cc(COc3ccccc3CC(=O)O)cc3c(F)coc23)c1F [Compound 46d, 2-(2-((7-(2-(aminomethyl)-3-fluoropyridin-4-yl)-3-fluorobenzofuran-5-yl)methoxy)phenyl)acetic acid] | > 6.00 |

Second part, the molecule after the results:

| pIC50 | Compound |
| --- | --- |
| 5.00 to 6.00 | NCc1ccn(-c2cc(COc3ccccc3CC(=O)O)cc3ccoc23)c1 [Compound 63f, 2-(2-((7-(3-(aminomethyl)-1H-pyrrol-1-yl)benzofuran-5-yl)methoxy)phenyl)acetic acid] |
| > 6.00 | CC(=O)c1ccc(CC(=O)O)c(OCc2cc(-c3ccnc(CN)c3)c3oc(F)cc3c2)c1 [Compound 74d, 2-(4-acetyl-2-((7-(2-(aminomethyl)pyridin-4-yl)-2-fluorobenzofuran-5-yl)methoxy)phenyl)acetic acid] |
| > 6.00 | NCc1cc(-c2cc(COc3ccc(F)cc3CC(=O)O)cc3cc(F)oc23)ccn1 [Compound 73c, 2-(2-((7-(2-(aminomethyl)pyridin-4-yl)-2-fluorobenzofuran-5-yl)methoxy)-5-fluorophenyl)acetic acid] |
| > 6.00 | NCc1cc(-c2cc(COc3ccccc3CC(=O)O)cc3c(F)coc23)ccn1 [Compound 47c, 2-(2-((7-(2-(aminomethyl)pyridin-4-yl)-3-fluorobenzofuran-5-yl)methoxy)phenyl)acetic acid] |
| > 6.00 | NCc1cccc(-c2cc(COc3ccccc3CC(=O)O)c(OCC(=O)O)c3ccoc23)c1 [Compound 65g, lithium 2-((7-(3-(aminomethyl)phenyl)-5-((2-(carboxymethyl)phenoxy)methyl)benzofuran-4-yl)oxy)acetate] |
| > 6.00 | NCc1cccc(-c2cc(COc3cc(C(F)(F)F)ccc3CC(=O)O)cc3cc(F)oc23)c1 [Compound 53d, 2-(2-((7-(3-(aminomethyl)phenyl)-2-fluorobenzofuran-5-yl)methoxy)-4-(trifluoromethyl)phenyl)acetic acid] |
| < 5.00 | NC(=O)c1cc(-c2cc(COc3ccccc3CC(=O)O)cc3ccoc23)cs1 [Compound 84c, 2-(2-((7-(5-carbamoylthiophen-3-yl)benzofuran-5-yl)methoxy)phenyl)acetic acid] |
| > 6.00 | CC(N)c1ccc(CC(=O)O)c(OCc2cc(-c3cccc(CN)c3)c3occc3c2)c1 (single isomer, unassigned; (-)) [Compound 61a, (−)-2-(4-(1-aminoethyl)-2-((7-(3-(aminomethyl)phenyl)benzofuran-5-yl)methoxy)phenyl)acetic acid] |
| > 6.00 | Cn1cc(-c2c(COc3ccccc3CC(=O)O)cc(-c3cccc(CN)c3)c3occc23)cn1 [Compound 78e, 2-(2-((7-(3-(aminomethyl)phenyl)-4-(1-methyl-1H-pyrazol-4-yl)benzofuran-5-yl)methoxy)phenyl)acetic acid] |
| > 6.00 | NCc1cccc(-c2cc(C(CC(=O)O)Oc3ccccc3CC(=O)O)cc3ccoc23)c1 (stereo not drawn) [Compound 62g, 3-(7-(3-(aminomethyl)phenyl)benzofuran-5-yl)-3-(2-(carboxymethyl)phenoxy)propanoic acid] |
| > 6.00 | CC(Oc1ccccc1CC(=O)O)c1cc(-c2cccc(CN)c2)c2occc2c1 (stereo not drawn) [Compound 77e, 2-(2-(1-(7-(3-(aminomethyl)phenyl)benzofuran-5-yl)ethoxy)phenyl)acetic acid] |
| > 6.00 | CC(C)Oc1c(COc2ccccc2CC(=O)O)cc(-c2cccc(CN)c2)c2occc12 [Compound 66f, 2-(2-((7-(3-(aminomethyl)phenyl)-4-isopropoxybenzofuran-5-yl)methoxy)phenyl)acetic acid] |
| > 6.00 | CC(Oc1ccccc1CC(=O)O)c1cc(-c2cccc(CN)c2)c2occc2c1 (single isomer, unassigned; (-)) [Compound 77g, (−)-2-(2-(1-(7-(3-(aminomethyl)phenyl)benzofuran-5-yl)ethoxy)phenyl)acetic acid] |
| > 6.00 | NCc1cccc(-c2cc(COc3ccccc3C(NC(=O)C3CC3)C(=O)O)cc3ccoc23)c1 (single isomer, unassigned; (-)) [Compound 51f, (−)-2-(2-((7-(3-(aminomethyl)phenyl)benzofuran-5-yl)methoxy)phenyl)-2-(cyclopropanecarboxamido)acetic acid] |
| > 6.00 | CC(=O)c1ccc(CC(=O)O)c(OCc2cc(-c3cccc(CN)c3F)c3oc(F)cc3c2)c1 [Compound 76e, 2-(4-acetyl-2-((7-(3-(aminomethyl)-2-fluorophenyl)-2-fluorobenzofuran-5-yl)methoxy)phenyl)acetic acid] |
